The record followed here is patent publication US20140066365A1, “USE OF CALIXARENES ASSOCIATED WITH AN ANTIBIOTIC IN THE TREATMENT OF BACTERIAL INFECTIONS” (priority 2011, published 2014).

Converted amounts (≈) assume the structure as drawn. Where two headings read alike, the source gives them in different places.

Holding throughout (assay type): cell-based
Test [1] has as its system SaR4: Meticillin-Resistant Staphylococcus aureus. Briefly: Antibiogram, MIC by the VITEK 2 system. The settings on record: SaR4; for MIC: Staphylococcus aureus, read-out: MIC. On the procedure: (§1) The bacterial and antibiogramidentification is carried out by the VITEK 2 system (bioMérieux) and by the disk diffusion technique
The test system of test [2] is EcR1: Penicillinase-Producing Escherichia coli without Associated Resistance. Description: Antibiogram by the disk diffusion technique. The settings on record: for Results: EcR1, interpretation of the diameter against Dmin Dmax; for Results / Diameter: Table A1; for MIC mg/L (diameter in mm): EcR1, cells that print a diameter, Table A2; for CA-SFM Interpretation: EcR1, diameter against CA-SFM 2011 limits; for CLSI Interpretation: EcR1, diameter against CLSI 2011 limits; for EUCAST Interpretation: EcR1, diameter against EUCAST 2011 limits; for Diameter: EcR1, disk diffusion. The protocol:
(§2) 5.1 EcR1: Penicillinase-Producing Escherichia coli without Associated Resistance The bacterial and antibiogramidentification is carried out by the VITEK 2 system (bioMérieux) and by the disk diffusion technique.
(A growth-free zone around the sample is the usual read-out of agar diffusion tests.)

For test [3], the system named is EcR3: ESBL-Producing Escherichia coli. Briefly: Antibiogram by the disk diffusion technique. The settings on record: for CA-SFM Interpretation: Cd CA-SFM 2011; for Results: Table C1, against Dmin Dmax; for Diameter: Table C1; for diameter in mm: Table C2. On the procedure:
The bacterial and antibiogramidentification is carried out by the VITEK 2 system (bioMerieux) and by the disk diffusion technique

For test [4], the system named is EcR1: Penicillinase-Producing Escherichia coli without Associated Resistance. Description: Antibiogram, MIC by the VITEK 2 system. The settings on record: for CA-SFM Interpretation: EcR1, MIC against Cc CA-SFM 2011; for CLSI Interpretation: EcR1, MIC against Cc CLSI 2011; for EUCAST Interpretation: EcR1, MIC against Cc EUCAST 2011; for Results: EcR1, interpretation of the MIC, Table A1; for MIC: Escherichia coli. The protocol: as §2

The test system of test [5] is EcR2: Cephalosporinase-Hyperproducing Strain of Escherichia coli. Description: Antibiogram, MIC by the VITEK 1 system. Particulars: for MIC: Escherichia coli; for Results: EcR2, Table B1; for CA-SFM Interpretation: Cc CA-SFM 2011; for CLSI Interpretation: Cc CLSI 2011. The protocol:
The bacterial and antibiogramidentification is carried out by the VITEK 1 system (bioMérieux) and by the disk diffusion technique

The test system of test [6] is SaR1: Meticillin-Resistant Staphylococcus aureus without Associated Resistance. Description: Antibiogram, MIC by the VITEK 2 system. Particulars: SaR1; for MIC: Staphylococcus aureus, read-out: MIC; for CA-SFM Interpretation: Cc CA-SFM 2011; for CLSI Interpretation: Cc CLSI 2011; for EUCAST Interpretation: Cc EUCAST 2011; for Results: from MIC. The protocol: (§3) The bacterial and antibiogramidentification is carried out by the VITEK 2 system (bioMérieux)

The subject of test [7] is PaR5: Pseudomonas aeruginosa. Briefly: Antibiogram by the disk diffusion technique. Particulars: for Diameter / Results: Table I1; for Results: against Dmin-Dmax. The protocol: as §1
Test [8] has as its system PaR3: Pseudomonas aeruginosa. Description: Antibiogram, MIC by the VITEK 2 system. The protocol:
as §3

[9] abbreviates: EcR1, Table A2, read-out: MIC mg/L (diameter in mm).
[10] abbreviates: EcR1, VITEK 2, Table A1, read-out: MIC.
Setting [11] is: EcR2, VITEK 1, Table B1, read-out: MIC.
Setting [12] is: EcR2, Table B2, MIC, read-out: MIC.

On to `CN(C)[C@@H]1C(O)=C(C(N)=O)C(=O)[C@@]2(O)C(O)=C3C(=O)c4c(O)cccc4[C@@](C)(O)[C@H]3C[C@@H]12` [Tetracycline], for which the MIC was not above 1 µg/mL in test [1] (Table F1) and not above 1 µg/mL in test [1] (Table F2, MIC).

For `O=C(O)c1cn(C2CC2)c2cc(N3CCNCC3)c(F)cc2c1=O` [Ciprofloxacin], the Results result in test [2] was “Susceptible”. For the same compound, in test [3], the “CA-SFM Interpretation” value is listed as “Susceptible” and the Results entry was “Susceptible”.

Take `C[C@H]1[C@H](NC(=O)/C(=N\OC(C)(C)C(=O)O)c2csc(N)n2)C(=O)N1S(=O)(=O)O` [Aztreonam]: in test [2], the “MIC mg/L (diameter in mm)” value came out at 28 mm, the “CA-SFM Interpretation” value is “Susceptible”, the “CLSI Interpretation” value is reported as “Susceptible” and the “EUCAST Interpretation” value was “Susceptible”. Further, in test [2], the Diameter was 28 mm and the Results entry is on record as “Susceptible”.

Take `CCn1cc(C(=O)O)c(=O)c2cc(F)c(N3CCNCC3)cc21` [Norfloxacin]: in test [4], the “CA-SFM Interpretation” value is on record as “Susceptible”, the “CLSI Interpretation” value is “Susceptible”, the “EUCAST Interpretation” value is on record as “Susceptible” and the Results result is on record as “Susceptible”. Moreover, in test [4] (setting [9]), the MIC was not above 0.5 mg/L. For the same compound, in test [4] (setting [10]), the MIC was not above 0.5 mg/L.

With `O=C1CN(/N=C/c2ccc([N+](=O)[O-])o2)C(=O)N1` [Nitrofurantoin], the MIC in test [4] (setting [9]) was not above 16 mg/L; in test [4] (setting [10]) it was not above 16 mg/L; in test [5] (setting [11]), not above 25 mg/L; in test [5] (setting [12]), not above 25 mg/L; in test [1] (Table F1) it was not above 25 µg/mL; in test [1] (Table F2, MIC), not above 25 µg/mL. Also, the MIC in test [6] (Table D1) is not above 16 µg/mL. Also, in test [6] (Table D2), the “MIC mg/L” value is “≦16 mg/L”.

As for `CO/N=C(\C(=O)N[C@@H]1C(=O)N2C(C(=O)[O-])=C(C[N+]3(C)CCCC3)CS[C@H]12)c1csc(N)n1` [Cefepime], in test [2], the “MIC mg/L (diameter in mm)” value is listed as 27 mm, the “CA-SFM Interpretation” value is “Susceptible”, the “CLSI Interpretation” value is “Susceptible” and the “EUCAST Interpretation” value is reported as “Susceptible”. In test [2], the Diameter was found to be 27 mm and the Results result is “Susceptible”.

Consider Quinupristin-dalfopristin, for which, in test [6], the “CA-SFM Interpretation” value was “Susceptible”, the “CLSI Interpretation” value was “Susceptible” and the “EUCAST Interpretation” value was “Susceptible”. Further, in test [6] (Table D1), the “MIC mg/L” value is given as “≦0.25 mg/L” and the Results entry is “Susceptible”. The “MIC mg/L” value in test [6] (Table D2) is “≦0.25 mg/L”.

As for `CC(=O)OCC1=C(C(=O)O)N2C(=O)[C@@H](NC(=O)Cc3cccs3)[C@H]2SC1` [C1G, Cefalotine], the “CA-SFM Interpretation” value in test [4] is “Susceptible”; in test [5] (EcR2, from MIC), “Resistant”; in test [3] it was “Resistant”. For the same compound, the “CLSI Interpretation” value in test [4] is “Susceptible”; in test [5] (EcR2, from MIC) it was “Resistant”; in test [3] (Cd CLSI 2011), “Resistant”. Further, the “EUCAST Interpretation” value in test [4] is “Susceptible”; in test [5] (EcR2, from MIC, Cc EUCAST 2011) it was “Resistant”. Further, the Results result in test [4] is “Susceptible”; in test [5], “Resistant”; in test [2], “Intermediate”; in test [3], “Resistant”. For the same compound, the MIC in test [4] (setting [9]) was 4 mg/L (≈ 10.1 µM); in test [4] (setting [10]), 4 mg/L (≈ 10.1 µM); in test [5] (setting [11]), not below 64 mg/L; in test [5] (setting [12]), not below 64 mg/L. The Diameter in test [2] turned out to be 17 mm; in test [3] it was 6 mm. For the same compound, in test [3], the diameter in mm was determined as 6 mm.

For the compound `CCn1cc(C(=O)O)c(=O)c2cc(F)c(N3CCNCC3)cc21` [Norofloxacin], in test [7] (PaR5), the Diameter came to 17 mm and the Results result was “Resistant”.

On to `C[C@@H](O)[C@H]1C(=O)N2C(C(=O)O)=C(S[C@@H]3CN[C@H](C(=O)N(C)C)C3)[C@H](C)[C@H]12` [Meropenem], for which, in test [7] (PaR5), the Diameter is 34 mm. Further, the values for the Results result in test [7] (PaR5) and in test [8] (Table H1) were “Susceptible” and “Resistant”, respectively. In test [7] (disk diffusion inhibition diameter, strain PaR5), this compound showed a diameter in mm of 34 mm. The “CA-SFM Interpretation” value in test [7] (disk diffusion, PaR5, versus critical diameter CA-SFM 2011) is on record as “Susceptible”; in test [8] (Cc CA-SFM 2011) it was “Resistant”. For the same compound, the “CLSI Interpretation” value in test [7] (disk diffusion, PaR5, versus critical diameter CLSI 2011) was “Susceptible”; in test [8] (Cc CLSI 2011) it was “Resistant”. The “EUCAST Interpretation” value is listed as “Susceptible” in test [7] (disk diffusion, PaR5, versus critical diameter EUCAST 2011, for ** antibiotics the disk load differs and the EUCAST interpretation is not applicable); “Resistant” in test [8] (Cc EUCAST 2011). For the same compound, the MIC in test [8] (Pseudomonas aeruginosa, Table H2, read-out: MIC) is not below 16 µg/mL; in test [8] (Table H1), “≧16”.

In the case of `CCn1cc(C(=O)O)c(=O)c2ccc(C)nc21` [Nalidixic acid], the “CA-SFM Interpretation” value is listed as “Susceptible” in test [4] and “Resistant” in test [5] (EcR2, from MIC). In addition, the “CLSI Interpretation” value in test [4] was “Susceptible”; in test [5] (EcR2, from MIC), “Resistant”. The results for the Results result in test [4] and in test [5] were “Susceptible” and “Resistant”, respectively. For the same compound, the MIC was not above 2 mg/L in test [4] (read-out: MIC mg/L), not above 2 mg/L in test [4] (read-out: MIC mg/L (diameter in mm)), not below 32 mg/L in test [5] and not below 32 mg/L in test [5] (read-out: MIC mg/L).

As to `CCn1cc(C(=O)O)c(=O)c2cc(F)c(N3CCN(C)CC3)cc21` [Pefloxacin], in test [5], the Results entry is “Resistant”. Also, the “CA-SFM Interpretation” value is given as “Resistant” in test [5] (EcR2, from MIC) and “Susceptible” in test [3]. In addition, the MIC in test [5] (setting [11]) and in test [5] (setting [12]) was not below 8 mg/L in each case. In addition, the Diameter is 26 mm in test [2] and 23 mm in test [3]. Moreover, the diameter in mm in test [3] came out at 23 mm.

In the case of `Cc1onc(-c2ccccc2)c1C(=O)N[C@@H]1C(=O)N2[C@@H]1SC(C)(C)[C@@H]2C(=O)O` [Oxacillin], the Results entry in test [1] (Table F1, MIC) is given as “Resistant”; in test [6] (Table D1), “Resistant”. Moreover, the “CA-SFM Interpretation” value in test [1] (from MIC, Cc CA-SFM 2011) is “Resistant”; in test [6], “Resistant”. The “CLSI Interpretation” value is “Resistant” in test [1] (from MIC, Cc CLSI 2011) and “Resistant” in test [6]. Also, the “EUCAST Interpretation” value in test [1] (from MIC, Cc EUCAST 2011) is “Resistant”; in test [6], “Resistant”. The MIC was not below 8 µg/mL in test [1] (Table F1); not below 8 µg/mL in test [1] (Table F2, MIC); not below 8 µg/mL in test [6] (Table D1). In addition, the “MIC mg/L” value in test [6] (Table D2) is “≧8 mg/L”.
